Experimental data published in the supplement of paper PMC10307832.

How the values were obtained:
Assay in all cases: relative viability (nuclei count vs DMSO), 5 days (fraction); higher = more cells survive
[1] = tested on: NCI-H3122
Procedure, shortened: (§1)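 Relative viability equals treated-well nuclei counts divided by vehicle-well nuclei counts. Counts came from 4× images of lung cancer cell lines grown in 1536-well plates for 5 days after pin-tool dosing on the day after seeding. Dosing used one drug alone or a fixed anchor-drug dose plus five library-drug doses (not always all listed) in √10 steps, and values are medians of duplicate plates.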

[2] = tested on: LK-2
Procedure, shortened: as §1

[3] = tested on: HCC-366
Procedure, shortened: as §1

[4] = tested on: RERF-LC-KJ
Procedure, shortened: as §1

[5] = tested on: LC-2-ad
Procedure, shortened: as §1

[6] = tested on: SK-MES-1
Procedure, shortened: as §1

[7] = tested on: HCC-78
Procedure, shortened: as §1

[8] = tested on: NCI-H838
Procedure, shortened: as §1

[9] = tested on: NCI-H2405
Procedure, shortened: as §1

[10] = tested on: NCI-H2228
Procedure, shortened: as §1

[11] = tested on: HOP-62
Procedure, shortened: as §1

[12] = tested on: NCI-H1355
Procedure, shortened: as §1

[13] = tested on: NCI-H596
Procedure, shortened: as §1

[14] = tested on: NCI-H1734
Procedure, shortened: as §1

[15] = tested on: NCI-H2085
Procedure, shortened: as §1

[16] = tested on: SW 1573
Procedure, shortened: as §1

[17] = tested on: CAL-12T
Procedure, shortened: as §1

[18] = tested on: NCI-H2009
Procedure, shortened: as §1

[19] = tested on: NCI-H1993
Procedure, shortened: as §1

[20] = tested on: PC-14
Procedure, shortened: as §1

[21] = tested on: NCI-H2347
Procedure, shortened: as §1

[22] = tested on: EMC-BAC-2
Procedure, shortened: as §1

[23] = tested on: ChaGo-K-1
Procedure, shortened: as §1

`O=C(O)CCCCC(CCSCc1ccccc1)SCc1ccccc1` (centres undefined) [CPI-613] + CC(=O)Nc1cccc(-n2c(=O)n(C3CC3)c(=O)c3c(Nc4ccc(I)cc4F)n(C)c(=O)c(C)c32)c1 [Trametinib] (partner 0.02 µM) was tested, and the relative viability ([1]; first compound 5 µM) was 0.232, the relative viability ([1]; first compound 15.81 µM) was 0.25 and the relative viability ([1]; first compound 50 µM) was 0.295. It also gave a relative viability ([1]; first compound 158.11 µM) of 0.215, a relative viability ([1]; first compound 500 µM) of 0.227 and a relative viability ([2]; first compound 5 µM) of 0.702. For the same compound, the relative viability ([2]; first compound 15.81 µM) was 0.786, the relative viability ([2]; first compound 50 µM) was 0.93 and the relative viability ([2]; first compound 158.11 µM) was 0.856. For the same compound, the relative viability ([2]; first compound 500 µM) was 0.792, the relative viability ([3]; first compound 5 µM) was 0.367 and the relative viability ([3]; first compound 15.81 µM) was 0.321. The relative viability ([3]; first compound 50 µM) was 0.29, the relative viability ([3]; first compound 158.11 µM) was 0.12 and the relative viability ([3]; first compound 500 µM) was 0.0064. For the same compound, the relative viability ([4]; first compound 5 µM) was 0.76, the relative viability ([4]; first compound 15.81 µM) was 0.878 and the relative viability ([4]; first compound 50 µM) was 0.845. It also gave a relative viability ([4]; first compound 158.11 µM) of 0.458, a relative viability ([4]; first compound 500 µM) of 0.44 and a relative viability ([5]; first compound 5 µM) of 0.857. For the same compound, the relative viability ([5]; first compound 15.81 µM) was 0.899, the relative viability ([5]; first compound 50 µM) was 0.911 and the relative viability ([5]; first compound 158.11 µM) was 0.695. It also gave a relative viability ([5]; first compound 500 µM) of 0.0212, a relative viability ([6]; first compound 5 µM) of 0.534 and a relative viability ([6]; first compound 15.81 µM) of 0.49. It also gave a relative viability ([6]; first compound 50 µM) of 0.523, a relative viability ([6]; first compound 158.11 µM) of 0.201 and a relative viability ([6]; first compound 500 µM) of 0.132. The relative viability ([7]; first compound 15.81 µM) was 0.729, the relative viability ([7]; first compound 50 µM) was 0.788 and the relative viability ([7]; first compound 158.11 µM) was 0.714. The relative viability ([7]; first compound 500 µM) was 0.716, the relative viability ([8]; first compound 5 µM) was 0.514 and the relative viability ([8]; first compound 15.81 µM) was 0.461. It also gave a relative viability ([8]; first compound 50 µM) of 0.468, a relative viability ([8]; first compound 158.11 µM) of 0.232 and a relative viability ([8]; first compound 500 µM) of 0.065. It also gave a relative viability ([9]; first compound 5 µM) of 0.633, a relative viability ([9]; first compound 15.81 µM) of 0.633 and a relative viability ([9]; first compound 50 µM) of 0.619. It also gave a relative viability ([9]; first compound 158.11 µM) of 0.494, a relative viability ([9]; first compound 500 µM) of 0.479 and a relative viability ([10]; first compound 5 µM) of 0.549. The relative viability ([10]; first compound 15.81 µM) was 0.393, the relative viability ([10]; first compound 50 µM) was 0.343 and the relative viability ([10]; first compound 158.11 µM) was 0.452. The relative viability ([10]; first compound 500 µM) was 0.052, the relative viability ([11]; first compound 5 µM) was 0.394 and the relative viability ([11]; first compound 15.81 µM) was 0.402. It also gave a relative viability ([11]; first compound 50 µM) of 0.351, a relative viability ([11]; first compound 158.11 µM) of 0.267 and a relative viability ([11]; first compound 500 µM) of 0.129. It also gave a relative viability ([12]; first compound 5 µM) of 0.44, a relative viability ([12]; first compound 15.81 µM) of 0.409 and a relative viability ([12]; first compound 50 µM) of 0.42. The relative viability ([12]; first compound 158.11 µM) was 0.27, the relative viability ([12]; first compound 500 µM) was 0.112 and the relative viability ([13]; first compound 5 µM) was 0.823. For the same compound, the relative viability ([13]; first compound 15.81 µM) was 0.732, the relative viability ([13]; first compound 50 µM) was 0.765 and the relative viability ([13]; first compound 158.11 µM) was 0.34. It also gave a relative viability ([13]; first compound 500 µM) of 0.036, a relative viability ([14]; first compound 5 µM) of 0.615 and a relative viability ([14]; first compound 15.81 µM) of 0.631. For the same compound, the relative viability ([14]; first compound 50 µM) was 0.593, the relative viability ([14]; first compound 158.11 µM) was 0.482 and the relative viability ([14]; first compound 500 µM) was 0.101. For the same compound, the relative viability ([15]; first compound 5 µM) was 0.664, the relative viability ([15]; first compound 15.81 µM) was 0.555 and the relative viability ([15]; first compound 50 µM) was 0.6. For the same compound, the relative viability ([15]; first compound 158.11 µM) was 0.216, the relative viability ([15]; first compound 500 µM) was 0.12 and the relative viability ([16]; first compound 5 µM) was 0.557. The relative viability ([16]; first compound 15.81 µM) was 0.433, the relative viability ([16]; first compound 50 µM) was 0.482 and the relative viability ([16]; first compound 158.11 µM) was 0.133. For the same compound, the relative viability ([16]; first compound 500 µM) was 0.0735, the relative viability ([17]; first compound 5 µM) was 0.286 and the relative viability ([17]; first compound 15.81 µM) was 0.309. It also gave a relative viability ([17]; first compound 50 µM) of 0.325, a relative viability ([17]; first compound 158.11 µM) of 0.0954 and a relative viability ([17]; first compound 500 µM) of 0.038. The relative viability ([18]; first compound 5 µM) was 0.319, the relative viability ([18]; first compound 15.81 µM) was 0.257 and the relative viability ([18]; first compound 50 µM) was 0.302. It also gave a relative viability ([18]; first compound 158.11 µM) of 0.081, a relative viability ([18]; first compound 500 µM) of 0.027 and a relative viability ([19]; first compound 5 µM) of 0.466. It also gave a relative viability ([19]; first compound 15.81 µM) of 0.456, a relative viability ([19]; first compound 50 µM) of 0.528 and a relative viability ([19]; first compound 158.11 µM) of 0.51. It also gave a relative viability ([19]; first compound 500 µM) of 0.291, a relative viability ([20]; first compound 5 µM) of 0.651 and a relative viability ([20]; first compound 15.81 µM) of 0.549. The relative viability ([20]; first compound 50 µM) was 0.72, the relative viability ([20]; first compound 158.11 µM) was 0.108 and the relative viability ([20]; first compound 500 µM) was 0.0098. It also gave a relative viability ([21]; first compound 5 µM) of 0.256, a relative viability ([21]; first compound 15.81 µM) of 0.232 and a relative viability ([21]; first compound 50 µM) of 0.259. The relative viability ([21]; first compound 158.11 µM) was 0.22, the relative viability ([21]; first compound 500 µM) was 0.206 and the relative viability ([22]; first compound 5 µM) was 0.928. It also gave a relative viability ([22]; first compound 15.81 µM) of 0.884, a relative viability ([22]; first compound 50 µM) of 0.906 and a relative viability ([22]; first compound 158.11 µM) of 0.521. The relative viability ([22]; first compound 500 µM) was 0.639, the relative viability ([23]; first compound 5 µM) was 0.853 and the relative viability ([23]; first compound 15.81 µM) was 0.876. It also gave a relative viability ([23]; first compound 50 µM) of 0.847, a relative viability ([23]; first compound 158.11 µM) of 0.29 and a relative viability ([23]; first compound 500 µM) of 0.391.
